Results reported in ChEMBL document CHEMBL4715823, “Homogeneous Assay for Target Engagement Utilizing Bioluminescent Thermal Shift” (ACS Med Chem Lett, 2018).
The source made the active and inactive calls. The calls are words filed in the database; no cut-off is given here.

Key:
[1] = biological target: Mitogen-activated protein kinase 14 (Homo sapiens) (UniProt Q16539); conditions: HeLa, dose 50.0 µM
[2] = biological target: Mitogen-activated protein kinase 14 (Homo sapiens) (UniProt Q16539); conditions: HeLa, dose 50.0 µM; remark: listed apart in the source

Mitogen-activated protein kinase 14 (Homo sapiens), sequence (Q16539 whole entry): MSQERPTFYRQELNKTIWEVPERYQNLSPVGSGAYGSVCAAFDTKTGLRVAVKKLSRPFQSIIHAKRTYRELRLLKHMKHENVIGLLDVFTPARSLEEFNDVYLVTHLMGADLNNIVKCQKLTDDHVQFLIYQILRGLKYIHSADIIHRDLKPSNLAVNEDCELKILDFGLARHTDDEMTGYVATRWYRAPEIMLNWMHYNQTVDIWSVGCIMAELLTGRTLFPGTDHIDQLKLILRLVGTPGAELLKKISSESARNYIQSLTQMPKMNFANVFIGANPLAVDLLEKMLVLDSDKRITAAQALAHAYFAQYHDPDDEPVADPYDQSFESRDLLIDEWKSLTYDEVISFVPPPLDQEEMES

Row | Compound | Tm [1] | ΔTm [2] [°C]
1 | Cc1ncc(-c2ccnc(Nc3ccc(S(C)(=O)=O)cc3)n2)n1C(C)C | inactive | 
2 | CC(C)(C)n1nc(-c2ccc(Cl)cc2)c2c(N)ncnc21 |  | 1.17
3 | C/C(O)=C(\C#N)C(=O)Nc1cc(Br)ccc1Br |  | 3.43
4 | Oc1ccc(-c2nc(-c3ccc(F)cc3)c(-c3ccncc3)[nH]2)cc1 |  | 7.8
